Laboratory results as given in patent US9163256B2, “Mutant receptors and their use in a nuclear receptor-based inducible gene expression system” (priority 2004, dated 2015).
Where two headings read alike, the source gives them in different places.

How the values were obtained:
CfEcR-DEF mutant F109N = CfEcR-DEF mutant F109N (Choristoneura fumiferana, UniProt O77255, F392N); assay: cell-based
Description: (§1) This construct was prepared in the same way as in switch 1.1 above except wild-type CfEcR-DEF was replaced with mutant CfEcR-DEF comprising a ligand binding domain comprising a substitution mutation selected from Table 1 below.
(§2) DNAs were transfected into mouse NIH3T3 cells (ATCC) as follows. Standard methods for culture and maintenance of the cells were followed. Cells were harvested and plated 96-well plates at 2,500 cells per well, in 50 μL of growth medium containing 10% fetal bovine serum (FBS). Twenty-four hours later, the cells were treated with 35 μL of serum-free growth medium containing either dimethylsulfoxide (DMSO; control) or a DMSO solution of ligand. The cells were then transfected using Superfect (Qiagen Inc.) transfection reagent. For each well, 0.625 μL of Superfect was mixed with 14.2 μL of serum-free growth medium. 0.16 μg of reporter construct and 0.04 μg of each receptor construct were added to the transfection reagent mix. The contents of the transfection mix were mixed in a vortex mixer and let stand at room temperature for 30 minutes. At the end of incubation, 15 μL of transfection mix was added to the cells. The cells were maintained at 37° C. and 5% CO2 for 48 hours in 5% FBS.
(§3) Reporter Assays: Cells were harvested 40 hours after adding ligands. 125 μL of passive lysis buffer (part of Dual-Luciferase reporter assay system from Promega Corporation) were added to each well of the […] plate. The plates were placed on a rotary shaker for 15 minutes. Twenty μL of lysate were assayed. Luciferase activity was measured using Dual-Luciferase reporter assay system from Promega Corporation following the manufacturer's instructions. Fold induction (FI) activities were calculated by dividing relative light units (“RLU”) in ligand treated cells with RLU in DMSO treated cells (untreated control).

CfEcR-DEF mutant R95W = CfEcR-DEF mutant R95W (Choristoneura fumiferana, UniProt O77255, R378W); assay: cell-based
CfEcR-DEF mutant R95W, sequence (O77255 entry or part of it R378W): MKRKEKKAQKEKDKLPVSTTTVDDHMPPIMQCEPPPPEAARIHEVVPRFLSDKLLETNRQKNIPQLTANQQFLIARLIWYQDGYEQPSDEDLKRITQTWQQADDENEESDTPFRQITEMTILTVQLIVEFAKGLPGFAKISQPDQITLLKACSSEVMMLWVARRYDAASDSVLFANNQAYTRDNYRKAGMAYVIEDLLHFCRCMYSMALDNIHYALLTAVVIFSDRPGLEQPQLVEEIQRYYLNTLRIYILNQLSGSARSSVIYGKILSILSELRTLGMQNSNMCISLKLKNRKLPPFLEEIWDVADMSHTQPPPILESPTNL
CfEcR-DEF mutant R95W, sequence (P28702 299-449, further chain): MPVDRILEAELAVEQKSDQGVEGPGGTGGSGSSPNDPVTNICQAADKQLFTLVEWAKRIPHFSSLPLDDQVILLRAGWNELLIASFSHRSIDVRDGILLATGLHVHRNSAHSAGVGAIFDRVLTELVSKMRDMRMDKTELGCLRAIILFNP
Description: as §1, §2, §3

CfEcR-DEF mutant A110N = CfEcR-DEF mutant A110N (Choristoneura fumiferana, UniProt O77255, A393N); assay: cell-based
CfEcR-DEF mutant A110N, sequence (O77255 entry or part of it A393N): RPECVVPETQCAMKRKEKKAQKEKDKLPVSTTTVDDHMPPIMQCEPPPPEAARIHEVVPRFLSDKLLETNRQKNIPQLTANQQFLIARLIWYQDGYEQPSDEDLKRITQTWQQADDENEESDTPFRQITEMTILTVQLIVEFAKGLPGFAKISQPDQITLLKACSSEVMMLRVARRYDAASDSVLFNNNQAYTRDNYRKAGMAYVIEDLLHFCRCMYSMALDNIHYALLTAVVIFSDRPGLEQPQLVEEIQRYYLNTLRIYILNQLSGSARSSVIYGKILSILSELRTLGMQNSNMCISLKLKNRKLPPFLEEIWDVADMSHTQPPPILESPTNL
CfEcR-DEF mutant A110N, sequence (P28702 299-449, stated change not applied, further chain): as the sequence (P28702 299-449, further chain) above
Description: as §1, §2, §3

CfEcR-DEF mutant F109M = CfEcR-DEF mutant F109M (Choristoneura fumiferana, UniProt O77255, F392M); assay: cell-based
CfEcR-DEF mutant F109M, sequence (O77255 entry or part of it F392M): as the sequence (O77255 entry or part of it A393N) above, with F186M, N187A counted along it
CfEcR-DEF mutant F109M, sequence (P28702 299-449, further chain): as the sequence (P28702 299-449, further chain) above
Description: as §1, §2, §3

CfEcR-DEF mutant F48W = CfEcR-DEF mutant F48W (Choristoneura fumiferana, UniProt O77255, F331W); assay: cell-based
CfEcR-DEF mutant F48W, sequence (P28702 299-449): as the sequence (P28702 299-449, further chain) above
CfEcR-DEF mutant F48W, sequence (O77255 entry or part of it F331W): as the sequence (O77255 entry or part of it A393N) above, with F125W, N187A counted along it
Description: as §1, §2, §3

CfEcR-DEF mutant F48Y = CfEcR-DEF mutant F48Y (Choristoneura fumiferana, UniProt O77255, F331Y); assay: cell-based
CfEcR-DEF mutant F48Y, sequence (O77255 entry or part of it F331Y): as the sequence (O77255 entry or part of it A393N) above, with F125Y, N187A counted along it
CfEcR-DEF mutant F48Y, sequence (P28702 299-449, further chain): as the sequence (P28702 299-449, further chain) above
Description: as §1, §2, §3

CfEcR-DEF mutant T52P = CfEcR-DEF mutant T52P (Choristoneura fumiferana, UniProt O77255, T335P); assay: cell-based
CfEcR-DEF mutant T52P, sequence (P28702 298-449): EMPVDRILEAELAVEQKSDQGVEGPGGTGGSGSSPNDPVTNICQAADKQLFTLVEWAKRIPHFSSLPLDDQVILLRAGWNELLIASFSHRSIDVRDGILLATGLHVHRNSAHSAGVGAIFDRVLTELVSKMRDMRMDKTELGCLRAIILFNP
CfEcR-DEF mutant T52P, sequence (O77255 entry or part of it T335P): as the sequence (O77255 entry or part of it A393N) above, with T129P, N187A counted along it
Description: as §1, §2, §3

CfEcR-DEF mutant V128F = CfEcR-DEF mutant V128F (Choristoneura fumiferana, UniProt O77255, V411F); assay: cell-based
CfEcR-DEF mutant V128F, sequence (P28702 299-449): as the sequence (P28702 299-449, further chain) above
CfEcR-DEF mutant V128F, sequence (O77255 entry or part of it V411F): as the sequence (O77255 entry or part of it R378W) above, with W160R, V193F counted along it
Description: as §1, §2, §3

CfEcR-DEF mutant V96E = CfEcR-DEF mutant V96E (Choristoneura fumiferana, UniProt O77255, V379E); assay: cell-based
CfEcR-DEF mutant V96E, sequence (O77255 entry or part of it V379E): as the sequence (O77255 entry or part of it R378W) above, with W160R, V161E counted along it
CfEcR-DEF mutant V96E, sequence (P28702 299-449, further chain): as the sequence (P28702 299-449, further chain) above
Description: as §1, §2, §3

CfEcR-DEF mutant W238E = CfEcR-DEF mutant W238E (Choristoneura fumiferana, UniProt O77255, W521E); assay: cell-based
CfEcR-DEF mutant W238E, sequence (P28702 299-449): as the sequence (P28702 299-449, further chain) above
CfEcR-DEF mutant W238E, sequence (O77255 entry or part of it W521E): as the sequence (O77255 entry or part of it R378W) above, with W160R, W303E counted along it
Description: as §1, §2, §3

CfEcR-DEF mutant Y120M = CfEcR-DEF mutant Y120M (Choristoneura fumiferana, UniProt O77255, Y403M); assay: cell-based
CfEcR-DEF mutant Y120M, sequence (O77255 entry or part of it Y403M): as the sequence (O77255 entry or part of it R378W) above, with W160R, Y185M counted along it
CfEcR-DEF mutant Y120M, sequence (P28702 299-449, further chain): as the sequence (P28702 299-449, further chain) above
Description: as §1, §2, §3

CfEcR-DEF mutant F48N = CfEcR-DEF mutant F48N (Choristoneura fumiferana, UniProt O77255, F331N); assay: GAL4-driven luciferase reporter assay in NIH3T3 cells; assay type: cell-based
CfEcR-DEF mutant F48N, sequence (O77255 entry or part of it F331N): as the sequence (O77255 entry or part of it A393N) above, with F125N, N187A counted along it
CfEcR-DEF mutant F48N, sequence (P28702 299-449, further chain): as the sequence (P28702 299-449, further chain) above
Outline: (§4)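 Mutant CfEcR-DEF receptor and GAL4-driven luciferase reporter constructs transfected into mouse NIH3T3 cells with DMSO or ligand added; maintained 48 h at 37° C in 5% FBS, harvested 40 h after ligand addition. Dual-luciferase read-out; fold induction = RLU with ligand / RLU with DMSO.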

CfEcR-DEF mutant M125W = CfEcR-DEF mutant M125W (Choristoneura fumiferana, UniProt O77255, M408W); assay: as above; assay type: cell-based
CfEcR-DEF mutant M125W, sequence (O77255 entry or part of it M408W): as the sequence (O77255 entry or part of it A393N) above, with N187A, M202W counted along it
CfEcR-DEF mutant M125W, sequence (P28702 299-449, further chain): as the sequence (P28702 299-449, further chain) above
Outline: as §4

[1] = target: CfEcR-DEF mutant T52V/A110P (Choristoneura fumiferana, UniProt O77255, A393P/T335V); assay: as above; assay type: cell-based
CfEcR-DEF mutant T52V/A110P, sequence (O77255 entry or part of it T335V/A393P): as the sequence (O77255 entry or part of it R378W) above, with T117V, W160R, A175P counted along it
CfEcR-DEF mutant T52V/A110P, sequence (P28702 299-449, stated change not applied, further chain): as the sequence (P28702 299-449, further chain) above
Outline: as §4

[2] = target: CfEcR-DEF mutant V107I/Y127E/T52V (Choristoneura fumiferana, UniProt O77255, T335V/V390I/Y410E); assay: as above; assay type: cell-based
CfEcR-DEF mutant V107I/Y127E/T52V, sequence (P28702 299-449): as the sequence (P28702 299-449, further chain) above
CfEcR-DEF mutant V107I/Y127E/T52V, sequence (O77255 entry or part of it T335V/V390I/Y410E): as the sequence (O77255 entry or part of it R378W) above, with T117V, W160R, V172I, Y192E counted along it
Outline: as §4

[3] = target: CfEcR-DEF mutant V107I/Y127E/G (Choristoneura fumiferana, UniProt O77255, INS541G/V390I/Y410E); assay: as above; assay type: cell-based
CfEcR-DEF mutant V107I/Y127E/G, sequence (P28702 299-449, stated change not applied): as the sequence (P28702 299-449, further chain) above
CfEcR-DEF mutant V107I/Y127E/G, sequence (O77255 entry or part of it V390I/Y410E/INS541G): as the sequence (O77255 entry or part of it R378W) above, with W160R counted along it
Description: as §1
The Gal-4-CfEcR-DEF(VYG) mutant was created by inserting an extra glycine at the C-terminal end of EcR substitution mutant V107I/Y127E [CfECR(VY)] by PCR. Essentially, this was done in two steps: PCR-amplification of CfEcR-DEF(VYG) and substitution of the CfEcR(VY) in the vector GAL4-CfEcR DEF(VY) pBIND 1-9 with the PCR-amplified CfEcR-DEF(VYG). The CfEcR-DEF region (with the extra glycine) was amplified by using the vector GAL4-CfEcR DEF(VY) pBIND 1-9 as template and the following PCR primers: […]
as §2, §3

CfEcR-DEF mutant L132M = CfEcR-DEF mutant L132M (Choristoneura fumiferana, UniProt O77255, L415M); assay: cell-based; assay type: cell-based; settings: NIH3T3, 40 h, read-out: Rel Max FI, mutant L132M
CfEcR-DEF mutant L132M, sequence (O77255 entry or part of it L415M): as the sequence (O77255 entry or part of it A393N) above, with N187A, L209M counted along it
CfEcR-DEF mutant L132M, sequence (P28702 298-449, further chain): as the sequence (P28702 298-449) above
Description: as §1, §2, §3

[4] = NIH3T3, 40 h, read-out: Rel Max FI

CfEcR-DEF mutant F109N, sequence (P28702 299-449): as the sequence (P28702 299-449, further chain) above
CfEcR-DEF mutant F109N, sequence (O77255 entry or part of it F392N): as the sequence (O77255 entry or part of it A393N) above, with F186N, N187A counted along it

Cc1cc(C)cc(C(=O)N(NC(=O)c2cccc(C(C)C)c2C)C(C)(C)C)c1 [RG-102362, 3,5-Dimethyl-benzoic acid N-tert-butyl-N′-(3-isopropyl-2-methyl-benzoyl)-hydrazide]
EC50 (CfEcR-DEF mutant F109N): 1850 nM | Emax (CfEcR-DEF mutant F109N; [4]): 40% | EC50 (CfEcR-DEF mutant R95W): ~8000 nM | Emax (CfEcR-DEF mutant R95W; [4]): 25% | EC50 (CfEcR-DEF mutant A110N): 720 nM | Emax (CfEcR-DEF mutant A110N; [4]): 86% | EC50 (CfEcR-DEF mutant F109M): 820 nM | Emax (CfEcR-DEF mutant F109M; [4]): 60% | EC50 (CfEcR-DEF mutant F48W): 770 nM | Emax (CfEcR-DEF mutant F48W; [4]): 51% | EC50 (CfEcR-DEF mutant F48Y): 590 nM | Emax (CfEcR-DEF mutant F48Y; [4]): 48% | EC50 (CfEcR-DEF mutant T52P): ~6000 nM | Emax (CfEcR-DEF mutant T52P; [4]): 11% | EC50 (CfEcR-DEF mutant V128F; EC50, mutant V128F): > 33000 nM | Emax (CfEcR-DEF mutant V128F; [4]): 234% | EC50 (CfEcR-DEF mutant V96E): 1860 nM | Emax (CfEcR-DEF mutant V96E; [4]): 48% | EC50 (CfEcR-DEF mutant W238E): 3450 nM | Emax (CfEcR-DEF mutant W238E; [4]): 45% | EC50 (CfEcR-DEF mutant Y120M): ~10000 nM | Emax (CfEcR-DEF mutant Y120M; [4]): 13% | EC50 (CfEcR-DEF mutant F48N): 1680 nM | Emax (CfEcR-DEF mutant F48N; [4]): 66% | EC50 (CfEcR-DEF mutant M125W): 3500 nM | Emax (CfEcR-DEF mutant M125W; [4]): 44% | EC50 [1]: 320 nM | Emax [1, 4]: 94% | EC50 [2]: < 10 nM | Emax [2, 4]: 73% | EC50 [3]: 60 nM | Emax [3, 4]: 81% | Emax (CfEcR-DEF mutant L132M): 1% | Emax (CfEcR-DEF mutant L132M; relative to max fold induction of GS-E ligand): 66%
